# Measured values published in patent USRE38863E1, “Chemotaxis assay procedure” (priority 1995, dated 2005).
# Several values for one entry are separate records, joined by “and”; a condition that tells them apart may be missing. Equal entries are not always repeated.
# Test system: HL-60 cells
# Assay: Chemotaxis assay: fluorescence of Di-I labeled cells migrated across radiation opaque membrane
# Assay type: cell-based
# Description: The cell line HL-60 (ATCC No. CCL 240) was maintained in logarithmic growth phase as a suspension culture at about 10^6 cells/mL. in RPMI 1640 medium (Mediatech Cellgrow, Fisher Scientific, Pittsburgh, PA.) supplemented with 20% (volume by volume) fetal bovine serum. (Hyclone Laboratories, Salt Lake City, UT). The cells were differentiated into mature myelocytes and neutrophils by incubating the cells for 48 hours at 37° C. in media containing 1.5% (volume by volume) dimethylsulfoxide.
# Following the treatment with dimethylsulfoxide, the cells were incubated with 50 μM Di-I fluorescent dye (Molecular Probes, Inc., Eugene, OR) at room temperature for 0.5-2 hours. The cells were then washed with Hanks' Balanced Salt Solution (“HBSS”) (Sigma Chemical Co., St. Louis, MO.) and re-suspended in HBSS to achieve a cell concentration of 10^6 cells/mL. The fluorescence of 0.5 mL. of cell suspension was measured in a Cytofluor™ 2300 fluorescent plate reader (Millipore Corp., Marlborough, MA.).
# Membrane 1: Polycarbonate film having a plurality of pores of 8 μm diameter were coated with four molecular layers of carbon and one layer of an admixture of gold and palladium in a vacuum evaporator. […] 6 mm disks of the radiation opaque membrane were glued to the bottom of inserts similar to the Millicell HA-12 mm (Millipore Corp.) or the Transwell-6.5 mm (Costar Corp., Cambridge, MA.) inserts with clear silicone rubber cement.
# Membrane 2: A non-porous polyester film (18 μm thick) containing a blue dye (Aquired Technology Inc., Alpharetta, GA.) was subjected to atomic etching to produce a 10 μm thick radiation opaque membrane containing a plurality of pores of 8 μm diameter having a combined radiation blocking efficiency of approximately 99%. 6 mm disks of the radiation opaque membrane were glued to the bottoms of inserts as with membrane 1.
# Each insert equipped with the either membrane 1 or membrane 2 were placed in a well of a 24-well culture plate (Falcon, Fisher Scientific). 0.5 mL of labeled cell suspension was placed inside each insert. The plate was incubated for 30 minutes at 37° C. to allow the cells to settle on the radiation opaque membrane. The fluorescence of each well was then measured with the Cytofluor™ 2300 to obtain a zero time reading. 0.5 mL of either N-formyl methionyl leucyl phenylalanine (“f-MLP”) (Sigma Chemical Co.) or HBBS was then added to each well. The fluorescence in each well was then measured at periodic time intervals using the Cytofluor™ 2300 at sensitivity setting 4. Results using membrane 1 are reported in Tables 1 and 2 and graphically illustrated in FIGS. 4 and 5. Results using membrane 2 are reported in Table 3 and graphically illustrated in FIGS. 6 and 7.
# [1] = membrane 1, f-MLP/f-MLP (f-MLP also added to cell suspension immediately before start), 10^−7 M
# [2] = membrane 1, insert/well HBSS/f-MLP, f-MLP Conc. = 10^−8 M
# [3] = membrane 1, insert/well f-MLP/f-MLP (f-MLP added to cell suspension immediately before start), 10^−8 M
# [4] = membrane 1, test solutions well/insert HBSS/f-MLP, f-MLP Conc. = 10^−7 M
# [5] = membrane 2, Millicell-type insert, well 20: Insert leaked, insert/well HBSS/f-MLP, 2 × 10^−8 M
# [6] = membrane 2, Millicell-type inserts, insert/well HBSS/f-MLP, f-MLP Conc. = 2 × 10^−8 M
# [7] = membrane 2, Millicell-type inserts, insert/well f-MLP/f-MLP (f-MLP added to cell suspension immediately before start), 2 × 10^−8 M
# [8] = membrane 2, Transwell-type inserts, insert/well HBSS/f-MLP, f-MLP Conc. = 2 × 10^−8 M
# [9] = membrane 2, Transwell-type inserts, insert/well f-MLP/f-MLP (f-MLP added to cell suspension immediately before start), 2 × 10^−8 M
structure (smiles),measurement,setting,value
"CSCC[C@H](NC=O)C(=O)N[C@@H](CC(C)C)C(=O)N[C@@H](Cc1ccccc1)C(=O)O [f-MLP, N-formyl methionyl leucyl phenylalanine]",Fluorescence 0 hr.,"membrane 1, f-MLP/f-MLP (f-MLP also added to cell suspension immediately before start), 10^−7 M, 0 hr.",706
same,Fluorescence 1 hr.,[1],654
same,Fluorescence 2 hr.,[1],708
same,Fluorescence 3 hr.,[1],732
same,Fluorescence 4 hr.,[1],728
same,Fluorescence 5 hr.,[1],753
same,FLUORESCENCE 0 min.,"membrane 1, insert/well HBSS/f-MLP, f-MLP Conc. = 10^−8 M, 0 min. (zero time reading)",2515 and 2927 and 2895 and 2631 and 2594
same,FLUORESCENCE 15 min.,[2],3388 and 4195 and 4165 and 3398 and 3446
same,FLUORESCENCE 30 min.,[2],3594 and 4475 and 4400 and 3584 and 3707
same,FLUORESCENCE 60 min.,[2],3614 and 4642 and 4539 and 3645 and 3813
same,FLUORESCENCE 90 min.,[2],3717 and 4761 and 4642 and 3728 and 3932
same,FLUORESCENCE 150 min.,[2],3770 and 4788 and 4655 and 3728 and 3999
same,FLUORESCENCE 0 min.,"membrane 1, insert/well f-MLP/f-MLP (f-MLP added to cell suspension immediately before start), 10^−8 M, 0 min.",2854
same,FLUORESCENCE 15 min.,[3],2675
same,FLUORESCENCE 30 min.,[3],2721
same,FLUORESCENCE 60 min.,[3],2721
same,FLUORESCENCE 90 min.,[3],2783
same,FLUORESCENCE 150 min.,[3],2783
same,Fluorescence 0 hr.,"membrane 1, test solutions well/insert HBSS/f-MLP, f-MLP Conc. = 10^−7 M, 0 hr. (zero time reading)",383
same,Fluorescence 1 hr.,[4],1046
same,Fluorescence 2 hr.,[4],1355
same,Fluorescence 3 hr.,[4],1433
same,Fluorescence 4 hr.,[4],1370
same,Fluorescence 5 hr.,[4],1359
same,Fluorescence 0 hr.,"membrane 2, Millicell-type insert, well 20: Insert leaked, insert/well HBSS/f-MLP, 2 × 10^−8 M, 0 hr.",1228
same,Fluorescence 0.5 hr.,[5],5928
same,Fluorescence 1 hr.,[5],6063
same,Fluorescence 2 hr.,[5],6342
same,Fluorescence 3 hr.,[5],6504
same,Fluorescence 0 hr.,"membrane 2, Millicell-type inserts, insert/well HBSS/f-MLP, f-MLP Conc. = 2 × 10^−8 M, 0 hr. (zero time reading)",1277 and 1242
same,Fluorescence 0.5 hr.,[6],1573 and 1207
same,Fluorescence 1 hr.,[6],1701 and 1830
same,Fluorescence 2 hr.,[6],1836 and 1931
same,Fluorescence 3 hr.,[6],1851 and 1969
same,Fluorescence 0 hr.,"membrane 2, Millicell-type inserts, insert/well f-MLP/f-MLP (f-MLP added to cell suspension immediately before start), 2 × 10^−8 M, 0 hr.",1187 and 1231
same,Fluorescence 0.5 hr.,[7],1181 and 1325
same,Fluorescence 1 hr.,[7],1516 and 1454
same,Fluorescence 2 hr.,[7],1622 and 1541
same,Fluorescence 3 hr.,[7],1673 and 1604
same,Fluorescence 0 hr.,"membrane 2, Transwell-type inserts, insert/well HBSS/f-MLP, f-MLP Conc. = 2 × 10^−8 M, 0 hr. (zero time reading)",1055 and 1064 and 1097
same,Fluorescence 0.5 hr.,[8],1770 and 1454 and 1775
same,Fluorescence 1 hr.,[8],2066 and 1846 and 2185
same,Fluorescence 2 hr.,[8],2351 and 2143 and 2411
same,Fluorescence 3 hr.,[8],2536 and 2292 and 2432
same,Fluorescence 0 hr.,"membrane 2, Transwell-type inserts, insert/well f-MLP/f-MLP (f-MLP added to cell suspension immediately before start), 2 × 10^−8 M, 0 hr.",1049 and 961
same,Fluorescence 0.5 hr.,[9],1277 and 1245
same,Fluorescence 1 hr.,[9],1413 and 1390
same,Fluorescence 2 hr.,[9],1538 and 1564
same,Fluorescence 3 hr.,[9],1582 and 1711
